Non-standard residues stand in square brackets, D forms with d. Residues, ends and D or L forms follow the SMILES beside them.
Assays:
Aβ1-42 = target: T1, Aβ1-42 (Homo sapiens, UniProt P05067); assay: Aβ aggregation assay (Thioflavin T); type: biochemical; details: 10 μM Aβ1-42, 5 μM ThT, 20 mM sodium phosphate pH 7.4, 50 mM NaCl, 37°C, 70 h, triplicates, nonlinear regression; read-out: IC50, inhibition of Aβ1-42 aggregation into ThT-positive fibrils
T1 construct: Lyophilized Aβ1 - 42 was dissolved in the respective peptide solution; purchased Isoloid GmbH (recombinant) or Bachem AG (synthetic)
Protocol: The potencies of ANK6, tANK6, cANK6r, and D3 to inhibit Aβ1 - 42 aggregation was examined using Thioflavin T (ThT). For this purpose, a buffer solution composed of 20 mM sodium phosphate buffer (pH 7.4) including 50 mM sodium chloride, and 5μM ThT was prepared. Afterwards, ANK6, tANK6, cANK6r, or D3 were diluted in this solution, respectively, to final peptide concentrations between 0.3125 and 80μM (ANK6 and tANK6:0.3125, 0.625, 1.25, 2.5, 5, 10, 20μM; cANK6r: 1.25, 2.5, 5, 10, 20, 40, 80μM; D3:1.17, 2.34, 4.7, 9.4, 18.8, 37.5, 75μM).
The buffer solution only served as negative control (blank). Lyophilized Aβ1 - 42 was dissolved in the respective peptide solution to a final concentration of 10μM. D-peptide solutions with the highest concentration of the respective D-peptide containing all components, except of Aβ1 - 42, served as negative controls. Aβ1 - 42 solved in buffer solution without D-peptide served as positive control. 100μL of each solution were transferred into the wells (triplicates) of 96 well microplates (PS, black, non-binding from Greiner Bio-One, Germany) and fluorescence signals (excitationλ 440 nm, emissionλ 490 nm) were measured in a Polarstar Optima plate reader (BMG, Germany) at 37°C every 20 min for 70 h. Afterwards, the respective blank curves were subtracted from each aggregation curve to exclude background fluorescence. […] The half maximal inhibitory concentration (IC50 value) was determined by plotting the percent inhibition against the respective D-peptides’ concentrations. Datasets were fitted by nonlinear regression (one site – specific binding with Hill slope, GraphPad Prism 5).

[1] = test system: α1-acid glycoprotein (AGP); details: Jiang et al.; read-out: KD of D3 to AGP; cited from earlier work
Source text: This had been expected before as all three D-peptides have a positive net charge and AGP is known to more strongly bind positively charged molecules as compared to HSA, which is known to bind rather acidic or neutral molecules. This had been observed previously for D3 in a similar manner. […] The unbound fractions (fu) of the th ...

T1 sequence (P05067 672-713 limits assumed): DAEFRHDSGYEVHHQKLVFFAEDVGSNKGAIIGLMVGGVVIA

IC50 (Aβ1-42): 7.2 µM
Compound: CC(C)C[C@@H](NC(=O)[C@@H](CCCNC(=N)N)NC(=O)[C@H](NC(=O)[C@@H](CCCNC(=N)N)NC(=O)[C@H]1CCCN1C(=O)[C@H](N)CCCNC(=N)N)[C@H](C)O)C(=O)N[C@H](Cc1c[nH]cn1)C(=O)N[C@@H](C(=O)N[C@H](Cc1c[nH]cn1)C(=O)N[C@H](CCCNC(=N)N)C(=O)N[C@H](CC(N)=O)C(=O)N[C@H](CCCNC(=N)N)C(N)=O)[C@H](C)O [Peptide D3] (H-[dR][dP][dR][dT][dR][dL][dH][dT][dH][dR][dN][dR]-NH2)
Kd [1]: 1.8 µM

From PMC6218115, “In Vitro Potency and Preclinical Pharmacokinetic Comparison of All-D-Enantiomeric Peptides Developed for the Treatment of Alzheimer’s Disease” (Journal of Alzheimer's Disease, 2018)
